{"source": "patent US7053175B1", "about": "“Synthetic peptides useful in biological assays for detecting infections caused by group O HIV-1 viruses” (Bio-Rad Pasteur, priority 1997, dated 2006)", "test_system": "sera from patients infected with group O HIV-1 retroviruses", "assay": "Immunoenzymatic test: Test No. 1 (immunoreactivity of peptides coated on microplates)", "assay_type": "binding, human", "parameters": "key to ABSORBANCE: >: signal greater than the reading capacity of the spectrophotometer", "conditions": "for ABSORBANCE: cyclized peptide 2 μg/ml", "procedure": "The sera used ESS, DUR, VAU and HAD are sera from French patients infected with group O HIV-1 retroviruses. The other serum samples from patients infected with group O HIV-1 retroviruses were obtained by the Yaoundé Pasteur Centre in Cameroon and were serotyped group O according to the serological algorithm described in AIDS (1977), 11, pp 445-453.\nThe HIV-negative sera (n=48) were obtained from healthy volunteers.\nThe synthetic peptides used were dissolved in water at a concentration of 1 mg/ml (stock solution). For the solid phase sensitization step (coating), 110 μl of a solution at 2 μg/ml of each peptide (obtained by diluting the stock solution with 0.1 M carbonate buffer solution) were added to each well of the microtitre plates Microtiter™ (NUNC). After incubating overnight at room temperature, the microplates were first washed with a Tris-NaCl buffer solution pH 7.4 containing 0.1% of Tween® 20 and 0.001% sodium merthiolate, and then saturated with a PBS solution containing 0.5% of Régilait™ (dried skimmed milk). After aspirating the saturating solution, the plates were heated for 10 min at 50° C.\nThe serum samples were diluted 1/5 with a skimmed milk solution (citrate buffer supplemented with 0.01% of phenol red, 0.25% of chloroform and 0.25% of Kathon®), deposited in the wells of the plates and incubated for 30 min at 40° C.\nAfter washing with a Tris-NaCl buffer solution pH 7.4 containing 0.1% of Tween® 20 and 0.001% of sodium merthiolate, 100 μl of a solution of conjugate consisting of horseradish peroxidase-labelled anti-human IgG and IgM goat antibodies, containing as preservative 0.01% of sodium merthiolate, in solution in a citrate buffer solution supplemented with 30% glycerol and 25% normal foetal calf serum, were added to each plate well and then the plates were incubated for 30 min at 40° C.\nAfter washing with a Tris-NaCl buffer solution pH 7.4 containing 0.1% of Tween® 20 and 0.001% of sodium merthiolate, the colour was developed by adding, to each well, 100 μl of O-phenylenediamine in solution in hydrogen peroxide. The microplates were then incubated for 30 min at room temperature and in the dark. The coloured reaction was then stopped by addition of 100 μl of 4N sulphuric acid. The absorbance (A) was determined at 490 and 620 nm.\nThe relative absorbance (A490-A620) read in each well is proportional to the immunoreactivity of each peptide. It indicates the ability of each peptide to react with the biological sample with which the test is carried out. The cut-off value was determined as being an absorbance equal to 0.15. It corresponds to the mean of the negative values (n=48) plus 12 standard deviations.\nThe reactivity of the peptides of the invention (peptide No. 3 (4B), peptide No. 2 (3B) and peptide No. 1 (2B), all in cyclized form), was compared with that of two synthetic peptides having, as sequence, a portion of the natural sequence of the envelope (env) of the VAU isolate (group O HIV-1 retrovirus) and comprising an immunodominant epitope of gp41.\nFor the study, these peptides were used in cyclized form.", "data": [{"sequence": "LLSSWGCKGRLVCYTSVQWNET [PEPTIDE No. 3 (4B)]", "values": [{"measurement": "ABSORBANCE", "setting": "serum 134", "value": ">"}, {"measurement": "ABSORBANCE", "setting": "serum 402", "value": ">"}, {"measurement": "ABSORBANCE", "setting": "serum 625", "value": ">"}, {"measurement": "ABSORBANCE", "setting": "serum 1062", "value": ">"}, {"measurement": "ABSORBANCE", "setting": "serum 1105*", "value": 1.421}, {"measurement": "ABSORBANCE", "setting": "serum 1581", "value": ">"}, {"measurement": "ABSORBANCE", "setting": "serum 1702", "value": ">"}, {"measurement": "ABSORBANCE", "setting": "serum 1754", "value": ">"}, {"measurement": "ABSORBANCE", "setting": "serum 2294", "value": ">"}, {"measurement": "ABSORBANCE", "setting": "serum 2312", "value": ">"}, {"measurement": "ABSORBANCE", "setting": "serum 2313", "value": ">"}, {"measurement": "ABSORBANCE", "setting": "serum 2352", "value": ">"}, {"measurement": "ABSORBANCE", "setting": "serum 2551", "value": ">"}, {"measurement": "ABSORBANCE", "setting": "serum 2700", "value": ">"}, {"measurement": "ABSORBANCE", "setting": "serum 3016", "value": ">"}, {"measurement": "ABSORBANCE", "setting": "serum 3136", "value": ">"}, {"measurement": "ABSORBANCE", "setting": "serum 3235", "value": ">"}, {"measurement": "ABSORBANCE", "setting": "serum 3236", "value": ">"}, {"measurement": "ABSORBANCE", "setting": "serum 3302", "value": ">"}, {"measurement": "ABSORBANCE", "setting": "serum 3482", "value": 2.402}, {"measurement": "ABSORBANCE", "setting": "serum 3529", "value": ">"}, {"measurement": "ABSORBANCE", "setting": "serum 3600*", "value": ">"}, {"measurement": "ABSORBANCE", "setting": "serum 3627*", "value": ">"}, {"measurement": "ABSORBANCE", "setting": "serum 3637", "value": ">"}, {"measurement": "ABSORBANCE", "setting": "serum 3653", "value": 1.352}, {"measurement": "ABSORBANCE", "setting": "serum 3771", "value": ">"}, {"measurement": "ABSORBANCE", "setting": "serum 3884*", "value": ">"}, {"measurement": "ABSORBANCE", "setting": "serum 3891", "value": ">"}, {"measurement": "ABSORBANCE", "setting": "serum 3935", "value": ">"}, {"measurement": "ABSORBANCE", "setting": "serum 3945", "value": ">"}, {"measurement": "ABSORBANCE", "setting": "serum 4021*", "value": 0.430}, {"measurement": "ABSORBANCE", "setting": "serum 4288*", "value": ">"}, {"measurement": "ABSORBANCE", "setting": "serum 4364", "value": ">"}, {"measurement": "ABSORBANCE", "setting": "serum 4434", "value": ">"}, {"measurement": "ABSORBANCE", "setting": "serum 4477", "value": ">"}, {"measurement": "ABSORBANCE", "setting": "serum 4489*", "value": ">"}, {"measurement": "ABSORBANCE", "setting": "serum 5149*", "value": ">"}, {"measurement": "ABSORBANCE", "setting": "serum 5164", "value": ">"}, {"measurement": "ABSORBANCE", "setting": "serum 5210", "value": ">"}, {"measurement": "ABSORBANCE", "setting": "serum 5270*", "value": ">"}, {"measurement": "ABSORBANCE", "setting": "serum 5373", "value": ">"}, {"measurement": "ABSORBANCE", "setting": "serum 5453", "value": 0.555}, {"measurement": "ABSORBANCE", "setting": "serum 5766*", "value": ">"}, {"measurement": "ABSORBANCE", "setting": "serum 5931", "value": ">"}, {"measurement": "ABSORBANCE", "setting": "serum 5969*", "value": ">"}, {"measurement": "ABSORBANCE", "setting": "serum 6111", "value": ">"}, {"measurement": "ABSORBANCE", "setting": "serum 6165", "value": ">"}, {"measurement": "ABSORBANCE", "setting": "serum 6198*", "value": ">"}, {"measurement": "ABSORBANCE", "setting": "serum 6295*", "value": 1.718}, {"measurement": "ABSORBANCE", "setting": "serum 6487", "value": ">"}, {"measurement": "ABSORBANCE", "setting": "serum 6512*", "value": 0.746}, {"measurement": "ABSORBANCE", "setting": "serum 6627", "value": ">"}, {"measurement": "ABSORBANCE", "setting": "serum 6689*", "value": 0.710}, {"measurement": "ABSORBANCE", "setting": "serum 6697", "value": ">"}, {"measurement": "ABSORBANCE", "setting": "serum 6782", "value": ">"}, {"measurement": "ABSORBANCE", "setting": "serum 6891", "value": ">"}, {"measurement": "ABSORBANCE", "setting": "serum 6976*", "value": ">"}, {"measurement": "ABSORBANCE", "setting": "serum 6998", "value": ">"}, {"measurement": "ABSORBANCE", "setting": "serum 7007", "value": 2.136}, {"measurement": "ABSORBANCE", "setting": "serum 7120", "value": ">"}, {"measurement": "ABSORBANCE", "setting": "serum 7212", "value": ">"}, {"measurement": "ABSORBANCE", "setting": "serum 7258*", "value": ">"}, {"measurement": "ABSORBANCE", "setting": "serum 7297*", "value": ">"}, {"measurement": "ABSORBANCE", "setting": "serum 7439", "value": ">"}, {"measurement": "ABSORBANCE", "setting": "serum 7443", "value": ">"}, {"measurement": "ABSORBANCE", "setting": "serum DUR*", "value": ">"}, {"measurement": "ABSORBANCE", "setting": "serum ESS*", "value": ">**"}, {"measurement": "ABSORBANCE", "setting": "serum HAD", "value": ">"}, {"measurement": "ABSORBANCE", "setting": "serum VAU*", "value": 1.342}, {"measurement": "immunoreactivity compared with the other peptides (in words)", "setting": "summary of Table IV", "value": "best performance"}]}]}
